# Laboratory results from publication PMC7129073 (Clinical Microbiology and Infection, 2015).
# Experiments:
# Shigella spp. = test: Disk diffusion, stool isolates Tehran; assay type: cell-based; conditions: 96 isolates
# S. pneumoniae [1] = assay type: cell-based, Streptococcus pneumoniae
# H. influenzae = assay type: cell-based, Haemophilus influenzae
# Acinetobacter = test: Disk diffusion; assay type: cell-based; conditions: 37 isolates selected as resistant to beta-lactams
# F. necrophorum = test: E-test, 13 clinical isolates; assay type: cell-based, Fusobacterium necrophorum; conditions: for MIC50 / MIC90: Fusobacterium necrophorum
# Pseudomonas spp. = test: MIC; assay type: cell-based
# S. marcescens = test: Italian survey of severe infections 2003, MIC; assay type: cell-based, Serratia marcescens
# M. morganii = test: Italian survey of severe infections 2003, MIC; assay type: cell-based, Morganella morganii
# P. stuartii [2] = test: Italian survey of severe infections 2003, MIC; assay type: cell-based, Providencia stuartii
# S. pneumoniae [3] = test: MIC of invasive strains, Saint George Hospital 2001–2004; assay type: cell-based, Streptococcus pneumoniae
# Escherichia coli (ECO) = test: Broth microdilution; assay type: cell-based; conditions: 2001
# nontyphoidal Salmonella = test: Agar dilution, isolates from chickens 1998–2004; assay type: cell-based, Salmonella spp.; conditions: Salmonella
# E. coli [4] = test: E-test susceptibility; assay type: cell-based, Escherichia coli
# K. pneumoniae [5] = test: E-test susceptibility; assay type: cell-based, Klebsiella pneumoniae
# [6] = system: P. aeruginosa strains from CF sputa; test: O-serotyping; assay type: cell-based, Pseudomonas aeruginosa; conditions: exposure to 1/2–1/16 MIC (ceftazidime) or 1/2–1/8 MIC (ciprofloxacin)
# Escherichia coli = test: Vitek 2 susceptibility, urine isolates of children; assay type: cell-based
# [7] = system: S. typhimurium (strain SL1344); test: Cell envelope proteome; assay type: cell-based, Salmonella typhimurium; conditions: 31.2 ng/ml; control 296 ± 77; mean + 1 SD
# K. pneumoniae [8] = test: MIC; assay type: cell-based, Klebsiella pneumoniae
# S. pneumoniae (SPN) = test: NCCLS broth microdilution, fluoroquinolones 1999–2004; assay type: cell-based, Streptococcus pneumoniae; conditions: Streptococcus pneumoniae, read-out: MIC90 during the six years, 1999–2004
# [9] = system: Pseudomonas aeruginosa (PA); test: MIC; assay type: cell-based
# qnrA = qnrA transcription in E. coli transconjugants after quinolone induction; assay type: cell-based, Escherichia coli; conditions: 0.4 × MIC
# Enterobacteriaceae = test: SMART 2003 Europe, microdilution; assay type: cell-based; conditions: 1948 isolates
# E. coli [10] = test: SMART 2003 Europe, microdilution; assay type: cell-based, Escherichia coli; conditions: 1106 isolates
# [11] = system: S. enterica serotype Typhimurium; test: Susceptibility testing of CipR strains from children and exotic pets; assay type: cell-based; conditions: Salmonella enterica
# S. pneumoniae [12] = test: Broth microdilution; assay type: cell-based, Streptococcus pneumoniae; conditions: 275 isolates
# S. aureus [13] = test: NCCLS broth microdilution, SSTI isolates; assay type: cell-based; conditions: Staphylococcus aureus
# P. stuartii [14] = test: E-test MIC and mutant prevention concentration, qnr transconjugand and mutants; conditions: Providencia stuartii
# [15] = system: Pseudomonas aeruginosa (PSA); test: Vitek 2 susceptibility, urine isolates of children; assay type: cell-based; conditions: both departments
# [16] = system: viridans group streptococci (VGS); test: MIC; assay type: cell-based
# P. aeruginosa = assay type: cell-based, Pseudomonas aeruginosa
# N. farcinica strain = test: E-test on Mueller-Hinton agar; assay type: cell-based; conditions: Nocardia farcinica
# Nocardia spp. [17] = test: E-test on Mueller Hinton agar, 81 clinical isolates; assay type: cell-based; conditions: Nocardia
# Nocardia spp. [18] = test: Time-kill at peak-serum concentrations, seven strains; assay type: cell-based; conditions: of seven strains; 24, 72 h
# [19] = system: inducible Enterobacteriaceae; test: SMART 2003, intraabdominal isolates; assay type: cell-based
# Klebsiella = test: SMART 2003 Europe, microdilution; assay type: cell-based, Klebsiella spp.; conditions: 341 isolates
# P.aeruginosa = test: Italian survey of severe infections 2003, MIC; assay type: cell-based, Pseudomonas aeruginosa
# A. baumannii = test: Italian survey of severe infections 2003, MIC; assay type: cell-based, Acinetobacter baumannii
# B.cepacia = test: Italian survey of severe infections 2003, MIC; assay type: cell-based, Burkholderia cepacia
# K. oxytoca = test: E-test susceptibility; assay type: cell-based, Klebsiella oxytoca
# Enterobacter spp = test: E-test susceptibility; assay type: cell-based
# Gram-negative rods = test: Microscan MIC, blood culture isolates; assay type: cell-based
# PSA = conditions: background statement, no reference given; cited from earlier work
# S. aureus [20] = test: Methicillin resistance, PBSCT patients; assay type: cell-based, Staphylococcus aureus
# CoNS = test: Methicillin resistance, PBSCT patients; assay type: cell-based, Coagulase-negative Staphylococcus
# Staphylococcus aureus [21] = test: EARSS Ireland, invasive isolates; assay type: cell-based; conditions: Jan'99–Jun'04, 4786 isolates
# S. aureus [22] = test: Italian survey of severe infections 2003, MIC; assay type: cell-based, Staphylococcus aureus
# S. epidermidis = test: Italian survey of severe infections 2003, MIC; assay type: cell-based, Staphylococcus epidermidis
# Staphylococcus aureus [23] = test: Broth microdilution and E-test, diabetic foot ulcers; assay type: cell-based; conditions: 81 isolates
# [24] = system: Staphylococcus epidermidis; test: as above; assay type: cell-based; conditions: 53 isolates
# [25] = ICU, SRGA breakpoints, tigecycline tentative S ≤2 μg/ml
smiles,measurement,setting,value
CO/N=C(\C(=O)N[C@@H]1C(=O)N2C(C(=O)O)=C(COC(C)=O)CS[C@H]12)c1csc(N)n1 [cefotaxime],sensitive,Shigella spp.,100%
same,resistant,S. pneumoniae [1],0%
same,resistant,H. influenzae,0%
same,resistant isolates,Acinetobacter,75.7%
same,MIC range,F. necrophorum,0.016 to 256 µg/mL
same,MIC50,F. necrophorum,0.016 µg/mL
same,MIC90,F. necrophorum,0.064 µg/mL
same,resistant strains,Pseudomonas spp.,90%
same,resistance,S. marcescens,13.2%
same,resistance,M. morganii,"14,3%"
same,resistance,P. stuartii [2],84.5%
same,% S,S. pneumoniae [3],95.2%
same,%R,S. pneumoniae [3],4.8%
same,susceptible,Escherichia coli (ECO); NAL-resistant isolates,89.9%
same,susceptible,Escherichia coli (ECO); NAL-susceptible isolates,99.2%
same,MIC50,nontyphoidal Salmonella; read-out: MIC 50/90,0.12 to 0.25 µg/mL
same,Susceptible isolates,E. coli [4]; [25],98%
same,Susceptible isolates,E. coli [4]; non ICU,99%
same,Susceptible isolates,K. pneumoniae [5]; ICU,98%
same,Susceptible isolates,K. pneumoniae [5]; non ICU,100%
O=C(O)c1cn(C2CC2)c2cc(N3CCNCC3)c(F)cc2c1=O [ciprofloxacin],change of agglutination type of nine monoagglutinable strains,[6],five out of nine strains
same,susceptibility rate,Escherichia coli; paediatric surgical unit (PSU),96%
same,susceptibility rate,Escherichia coli; paediatric units (PU),100%
same,number of proteins detected in 2D gels,[7],153 ± 36
same,susceptibility category,K. pneumoniae [8]; BSAC,resistant
same,sensitive,Shigella spp.,100%
same,intermediate susceptible,H. influenzae,2.4%
same,MIC90,S. pneumoniae (SPN),2 µg/mL
same,isolates with MPC ≤ 2 μg/ml,[9],79%
same,MPC range,[9]; 10 billion organisms on agar,1 to 4 µg/mL
same,MIC range,[9]; patients P1 and P2,0.031 to 1 µg/mL
same,increase of qnrA transcription over baseline,qnrA; transconjugant from 1960,2.6 times
same,increase of qnrA transcription over baseline,qnrA; transconjugant from N5,5.1 times
same,increase of qnrA transcription over baseline,qnrA; transconjugant from UAB1,4.3 times
same,per cent susceptible,Enterobacteriaceae,84%
same,per cent susceptible,E. coli [10],80%
same,MIC,[11],≥ 16 µg/mL
same,Susceptibility,S. pneumoniae [12],94.5%
same,MIC90,nontyphoidal Salmonella,~0.25 µg/mL
same,MIC50,S. aureus [13],0.25 µg/mL
same,MIC,"P. stuartii [14]; ATCC29914, P. stuartii ATCC 29914 RifR",0.03 µg/mL
same,MIC,"P. stuartii [14]; ATCC29914, mutants of ATCC 29914 RifR, SCV, median",3 µg/mL
same,MIC,P. stuartii [14]; TCPs 123 (qnr-positive transconjugand),0.5 µg/mL
same,MIC,"P. stuartii [14]; mutants of TCPs 123, SCV, median",> 32 µg/mL
same,MIC,"P. stuartii [14]; mutants of TCPs 123, normal colony size, median",6 µg/mL
C[C@@H](O)[C@H]1C(=O)N2C(C(=O)O)=C(SCCN=CN)C[C@H]12 [imipenem],Susceptible isolates,[15],74-100%
same,MIC,K. pneumoniae [8]; Klebsiella pneumoniae,1 to 8 µg/mL
same,MIC50,[16],0.015 µg/mL
same,MIC90,[16],0.12 µg/mL
same,resistant,H. influenzae,0%
same,resistant,P. aeruginosa,42%
same,MIC,N. farcinica strain,> 32 µg/mL
same,MIC50,Nocardia spp. [17],0.5 µg/mL
same,MIC90,Nocardia spp. [17],2 µg/mL
same,resistant isolates,Acinetobacter,0.0%
same,strains with bactericidal activity (≥3 log10 cfu/ml decrease),Nocardia spp. [18],4 strains
same,MIC range,F. necrophorum,0.004 to 32 µg/mL
same,MIC50,F. necrophorum,1.5 µg/mL
same,MIC90,F. necrophorum,> 32 µg/mL
same,% susceptible,[19]; A/P (N = 200),99%
same,% susceptible,[19]; EU (N = 354),98%
same,% susceptible,[19]; LA (N=113),98%
same,% susceptible,[19]; NA (N = 163),98%
same,per cent susceptible,Enterobacteriaceae,>99%
same,per cent susceptible,E. coli [10],100%
same,per cent susceptible,Klebsiella,99%
same,resistance,P.aeruginosa,11.9%
same,resistance,A. baumannii,22.5%
same,resistance,B.cepacia,71.4%
same,% S,S. pneumoniae [3],100%
same,%R,S. pneumoniae [3],0%
same,Susceptible isolates,E. coli [4]; [25],99%
same,Susceptible isolates,E. coli [4]; non ICU,100%
same,Susceptible isolates,K. pneumoniae [5]; ICU,100%
same,Susceptible isolates,K. pneumoniae [5]; non ICU,99%
same,Susceptible isolates,K. oxytoca; ICU,100/100%
same,Susceptible isolates,K. oxytoca; non ICU,100/100%
same,Susceptible isolates,Enterobacter spp; ICU,96%
same,Susceptible isolates,Enterobacter spp; non ICU,98%
same,susceptible strains (n/N),Gram-negative rods,15/16
same,MIC50,PSA,1 µg/mL
COc1cccc(OC)c1C(=O)N[C@@H]1C(=O)N2[C@@H]1SC(C)(C)[C@@H]2C(=O)O [methicillin],resistance,S. aureus [20],47.4%
same,resistance,CoNS,86.5%
same,resistant isolates,Staphylococcus aureus [21],41.4%
same,resistance,S. aureus [22],37.1%
same,resistance,S. epidermidis,86.7%
same,resistant isolates,Staphylococcus aureus [23],27.2%
same,resistant isolates,[24],35.8%
